In US20070191480A1, “Gycol Ether Miticides and Anti-Allergen Treatments” (priority 2004, published 2007):
Where two headings read alike, the source gives them in different places.

Tests used:
Vapor pressure = experiment: Vapor pressure
Description: The preferred vapor pressure of the solvents is less than about 1 mm Hg at 20° C., and preferably the vapor pressure is less than 0.5 mm Hg at 20° C.

dust mites = experiment: Dust mite kill efficacy, submersion method; format: in vivo; conditions: for >50% kill in 30 min.: 8% or saturated solutions in water, dust mites; for 1% HC Solution: % kill at 30 min / 1% HC Solution: time to 100% kill: 1% HC solution with 1% Stepanol WAC; for 1% HC Solution: % kill at 30 min: None = no kill; for 1% HC with 7% DPnP Solution: % kill at 30 min / 1% HC with 7% DpnP at 9.5 pH: % kill at 30 min / 1% HC with 7% DPnP Solution: time to 100% kill / 1% HC with 7% DpnP at 9.5 pH: time to 100% kill: 1% Stepanol WAC; for 1% HC with 7% DpnP at 9.5 pH: % kill at 30 min / 1% HC with 7% DpnP at 9.5 pH: time to 100% kill: pH 9.5; for 8% Solution: time to 100% kill: 8% glycol ether/ester in water with 1% Stepanol WAC, mites immersed, maximum time period 30 minutes; for 1% HC Solution: time to 100% kill: solution pH (6.30-7.26); for 1% HC Solution: time to 100% kill / 1% HC with 7% DPnP Solution: time to 100% kill / 1% HC with 7% DpnP at 9.5 pH: time to 100% kill: maximum 30 minutes
Source text: To test the efficacy of the cleaning composition containing glycol ether, glycol ether ester, and combinations thereof for their ability to kill dust mites, a submersion method was used. The dust mites were immersed in the following solutions with a 1% or 8% glycol ether, glycol ether ester or a combination thereof. In addition to the glycol ether and or glycol ether ester, the solution also contained about 1% Stepanol® WAC (sodium lauryl sulfate) surfactant and the remainder of the solution was water. The pH of the aqueous solution was maintained between about 5 to 10.
After the dust mites were immersed in the solution they were tested each minute to determine if they were still alive or not. To test if the mites were alive after treatment, they are viewed under a dissecting microscope and poked with a 26-guage needle to induce movement. […] Since sometimes dust mites may appear to-be dead after treatment and then recover a few days later, a treated population and a control sample were placed in a high humidity desiccators and poke tests were conducted over several days following the initial treatment to ensure that the initial reported kill rates were accurate.

[1] = Solubility in water at 20° C.

Vapor Pressure (mm Hg) (Vapor pressure)	SMILES	>50% kill in 30 min. (dust mites)	Vapor Pressure (mm Hg) (Vapor pressure; at 20° C.)	Solubility in water at 20° C. [1]	8% Solution: time to 100% kill (dust mites)	other results
1.3 mm Hg	CCCOCCO [Ethylene glycol n-propyl ether]	No				
	COCCOCCO [Diethylene glycol methyl ether]	no	0.2 mm Hg	100%		
	CCCCOC(C)COC(C)COC(C)CO (stereo not shown) [Dowanol TPnB, Tripropylene glycol n-butyl ether]	Yes	<0.01 mm Hg		20 min	1% HC Solution: % kill at 30 min (dust mites): None; 1% HC with 7% DPnP Solution: % kill at 30 min (dust mites): 90% kill; 1% HC with 7% DpnP at 9.5 pH: % kill at 30 min (dust mites): No kill
	COCC(C)O (stereo not shown) [Propylene glycol methyl ether]	No	8.1 mm Hg	100%		
0.12 mm Hg	CCOCCOCCO [Diethylene glycol ethyl ether]	No				
	CCCOCC(C)O (stereo not shown) [Propylene glycol n-propyl ether]	No	1.8 mm Hg	100%		
	CC(O)COc1ccccc1 (stereo not shown) [Dowanol PPh, propylene glycol phenol ether]				7 min	1% HC Solution: time to 100% kill (dust mites): 22 min; 1% HC with 7% DPnP Solution: time to 100% kill (dust mites): 30 min; 1% HC with 7% DpnP at 9.5 pH: time to 100% kill (dust mites): 26 min
	CCCCOCCOC(C)=O [Butyl Cellosolve Acetate, ethylene glycol n-butyl ether acetate]	Yes	0.29 mm Hg	1%	4 min	1% HC Solution: time to 100% kill (dust mites): 22 min; 1% HC with 7% DPnP Solution: time to 100% kill (dust mites): 18 min; 1% HC with 7% DpnP at 9.5 pH: time to 100% kill (dust mites): 16 min
	CCCOC(C)COC(C)CO (stereo not shown) [Dipropylene glycol n-propyl ether]	No	0.05 mm Hg	18%		
	CCCCCCOCCOCCO [Hexyl Carbitol, diethylene glycol monohexyl ether]				25 min	1% HC Solution: % kill at 30 min (dust mites): None; 1% HC with 7% DPnP Solution: time to 100% kill (dust mites): 26 min; 1% HC with 7% DpnP at 9.5 pH: % kill at 30 min (dust mites): No kill
	CCCCOCCO [Ethylene glycol n-butyl ether]	No	0.6 mm Hg			
3.8 mm Hg	COCC(C)OC(C)=O (stereo not shown) [Propylene glycol methyl ether acetate]	No				
0.05 mm Hg	COC(C)COC(C)COC(C)=O (stereo not shown) [Dipropylene glycol methyl ether acetate]	Yes				
0.17 mm Hg	COC(C)COC(C)CO (stereo not shown) [Dipropylene glycol methyl ether]	No				
	CCCCOCCOCCO [Diethylene glycol n-butyl ether]	No	0.02 mm Hg	100%		
	OCCOc1ccccc1 [Dowanol Eph, ethylene glycol phenyl ether]				17 min	1% HC Solution: % kill at 30 min (dust mites): 95% kill; 1% HC with 7% DPnP Solution: % kill at 30 min (dust mites): 95% kill; 1% HC with 7% DpnP at 9.5 pH: % kill at 30 min (dust mites): 50% kill

SMILES	Vapor Pressure (mm Hg) (Vapor pressure)	>50% kill in 30 min. (dust mites)	Vapor Pressure (mm Hg) (Vapor pressure; at 20° C.)	Solubility in water at 20° C. [1]	8% Solution: time to 100% kill (dust mites)	other results
CCCCOCCOCCOC(C)=O [Butyl Carbitol Acetate, diethylene glycol n-butyl ether acetate]	0.04 mm Hg	Yes			20 min	1% HC Solution: % kill at 30 min (dust mites): 50% kill; 1% HC with 7% DPnP Solution: % kill at 30 min (dust mites): 90% kill; 1% HC with 7% DpnP at 9.5 pH: % kill at 30 min (dust mites): 80% kill
CCCCOCC(C)O (stereo not shown) [Dowanol PnB, propylene glycol n-butyl ether]	0.62 mm Hg	Yes			17 min	1% HC Solution: % kill at 30 min (dust mites): None; 1% HC with 7% DPnP Solution: time to 100% kill (dust mites): 29 min; 1% HC with 7% DpnP at 9.5 pH: % kill at 30 min (dust mites): 60% kill
CCCCCCOCCO [Hexyl Cellosolve, ethylene glycol monohexyl ether]	<1.0 mm Hg	Yes			11 min	1% HC Solution: time to 100% kill (dust mites): 15 min; 1% HC with 7% DPnP Solution: time to 100% kill (dust mites): 14 min; 1% HC with 7% DpnP at 9.5 pH: time to 100% kill (dust mites): 26 min
